In patent publication US20190284136A1, “INDOLINE DERIVATIVES” (ViiV HEALTHCARE UK LIMITED, priority 2016, published 2019):

Tested on: HIV
Experiment: Table 1 IC50 of the examples (assay method not given; patent concerns inhibiting HIV replication)
Type: cell-based
Conditions: Human immunodeficiency virus 1

Structure (SMILES) | IC50 [nM]
Cc1cc2c(c(-c3cc(F)c4c(c3C)CCCO4)c1[C@H](OC(C)(C)C)C(=O)O)CCN2C(=O)c1ccc(C(F)(F)F)nc1 (atropisomer, axis not shown) [Example 172, (S)-2-(tert-butoxy)-2-((R)-4-(8-fluoro-5-methylchroman-6-yl)-6-methyl-1-(6-(trifluoromethyl)nicotinoyl)indolin-5-yl)acetic acid] | 6
Cc1cc2c(c(-c3cc(F)c4c(c3C)CCCO4)c1[C@H](OC(C)(C)C)C(=O)O)CCN2C(=O)c1cccnc1C (atropisomer, axis not shown) [Example 173, (S)-2-(tert-butoxy)-2-((R)-4-(8-fluoro-5-methylchroman-6-yl)-6-methyl-1-(2-methylnicotinoyl)indolin-5-yl)acetic acid] | 13
COc1cc(C(=O)N2CCc3c2cc(C)c([C@H](OC(C)(C)C)C(=O)O)c3-c2cc(F)c3c(c2C)CCCO3)cc(F)c1F (atropisomer, axis not shown) [Example 174, (S)-2-(tert-Butoxy)-2-((R)-1-(3,4-Difluoro-5-methoxybenzoyl)-4-(8-fluoro-5-methylchroman-6-yl)-6-methylindolin-5-yl)acetic acid] | 6
Cc1cc2c(c(-c3cc(F)c4c(c3C)CCCO4)c1[C@H](OC(C)(C)C)C(=O)O)CCN2C(=O)C(=O)c1ccccc1 (atropisomer, axis not shown) [Example 175, (S)-2-(tert-Butoxy)-2-((R)-4-(8-fluoro-5-methylchroman-6-yl)-6-methyl-1-(2-oxo-2-phenylacetyl)indolin-5-yl)acetic acid] | 90
COc1cc(C(=O)N2CCc3c2cc(C)c([C@H](OC(C)(C)C)C(=O)O)c3-c2cc(F)c3c(c2C)CCCO3)ccc1C(F)(F)F (atropisomer, axis not shown) [Example 176, (S)-2-(tert-Butoxy)-2-((R)-4-(8-Fluoro-5-methylchroman-6-yl)-1-(3-methoxy-4-(trifluoromethyl)benzoyl)-6-methylindolin-5-yl)acetic acid] | 5
Cc1cc2c(c(-c3cc(F)c4c(c3C)CCCO4)c1[C@H](OC(C)(C)C)C(=O)O)CCN2C(=O)c1cccc2c1CCO2 (atropisomer, axis not shown) [Example 177, (S)-2-(tert-Butoxy)-2-((R)-1-(2,3-dihydrobenzofuran-4-carbonyl)-4-(8-fluoro-5-methylchroman-6-yl)-6-methylindolin-5-yl)acetic acid] | 2
Cc1cc2c(c(-c3cc(F)c4c(c3C)CCCO4)c1[C@H](OC(C)(C)C)C(=O)O)CCN2C(=O)c1ccc2c(c1)OCC2 (atropisomer, axis not shown) [Example 178, (S)-2-(tert-Butoxy)-2-((R)-1-(2,3-Dihydrobenzofuran-6-carbonyl)-4-(8-fluoro-5-methylchroman-6-yl)-6-methylindolin-5-yl)acetic acid] | 4
Cc1nc2cccc(C(=O)N3CCc4c3cc(C)c([C@H](OC(C)(C)C)C(=O)O)c4-c3cc(F)c4c(c3C)CCCO4)c2o1 (atropisomer, axis not shown) [Example 179, (S)-2-(tert-Butoxy)-2-((R)-4-(8-Fluoro-5-methylchroman-6-yl)-6-methyl-1-(2-methylbenzo[d]oxazole-7-carbonyl)indolin-5-yl)acetic acid] | 12
COc1c(C(=O)N2CCc3c2cc(C)c([C@H](OC(C)(C)C)C(=O)O)c3-c2cc(F)c3c(c2C)CCCO3)cccc1C(F)(F)F (atropisomer, axis not shown) [Example 180, (S)-2-(tert-Butoxy)-2-((R)-4-(8-Fluoro-5-methylchroman-6-yl)-1-(2-methoxy-3-(trifluoromethyl)benzoyl)-6-methylindolin-5-yl)acetic acid] | 5
COc1c(F)cccc1C(=O)N1CCc2c1cc(C)c([C@H](OC(C)(C)C)C(=O)O)c2-c1ccc2c(c1C)CCCO2 (atropisomer, axis not shown) [Example 181, (S)-2-(tert-Butoxy)-2-((R)-1-(3-fluoro-2-methoxybenzoyl)-6-methyl-4-(5-methylchroman-6-yl)indolin-5-yl)acetic acid] | 2
Cc1cc2c(c(-c3ccc4c(c3C)CCCO4)c1[C@H](OC(C)(C)C)C(=O)O)CCN2C(=O)c1cccc2c1OCCO2 (atropisomer, axis not shown) [Example 182, (S)-2-(tert-Butoxy)-2-((R)-1-(2,3-dihydrobenzo[b][1,4]dioxine-5-carbonyl)-6-methyl-4-(5-methylchroman-6-yl)indolin-5-yl)acetic acid] | 5
COc1cc(Cl)ccc1C(=O)N1CCc2c1cc(C)c([C@H](OC(C)(C)C)C(=O)O)c2-c1ccc2c(c1C)CCCO2 (atropisomer, axis not shown) [Example 183, (S)-2-(tert-Butoxy)-2-((R)-1-(4-chloro-2-methoxybenzoyl)-6-methyl-4-(5-methylchroman-6-yl)indolin-5-yl)acetic acid] | 4
COc1cc(C(=O)N2CCc3c2cc(C)c([C@H](OC(C)(C)C)C(=O)O)c3-c2ccc3c(c2C)CCCO3)ccc1C (atropisomer, axis not shown) [Example 184, (S)-2-(tert-Butoxy)-2-((R)-1-(3-methoxy-4-methylbenzoyl)-6-methyl-4-(5-methylchroman-6-yl)indolin-5-yl)acetic acid] | 4
COc1ccc(C(=O)N2CCc3c2cc(C)c([C@H](OC(C)(C)C)C(=O)O)c3-c2ccc3c(c2C)CCCO3)c(OC)c1 (atropisomer, axis not shown) [Example 185, (S)-2-(tert-Butoxy)-2-((R)-1-(2,4-dimethoxybenzoyl)-6-methyl-4-(5-methylchroman-6-yl)indolin-5-yl)acetic acid] | 9
COc1ccc(C(=O)N2CCc3c2cc(C)c([C@H](OC(C)(C)C)C(=O)O)c3-c2ccc3c(c2C)CCCO3)cc1OC (atropisomer, axis not shown) [Example 186, (S)-2-(tert-Butoxy)-2-((R)-1-(3,4-dimethoxybenzoyl)-6-methyl-4-(5-methylchroman-6-yl)indolin-5-yl)acetic acid] | 6
COc1ccc(C(=O)N2CCc3c2cc(C)c([C@H](OC(C)(C)C)C(=O)O)c3-c2ccc3c(c2C)CCCO3)cc1F (atropisomer, axis not shown) [Example 187, (S)-2-(tert-Butoxy)-2-((R)-1-(3-fluoro-4-methoxybenzoyl)-6-methyl-4-(5-methylchroman-6-yl)indolin-5-yl)acetic acid] | 6
Cc1ccccc1C(=O)N1CCc2c1cc(C)c([C@H](OC(C)(C)C)C(=O)O)c2-c1ccc2c(c1C)CCCO2 (atropisomer, axis not shown) [Example 188, (S)-2-(tert-Butoxy)-2-((R)-6-methyl-1-(2-methylbenzoyl)-4-(5-methylchroman-6-yl)indolin-5-yl)acetic acid] | 5
Cc1cc2c(c(-c3ccc4c(c3C)CCCO4)c1[C@H](OC(C)(C)C)C(=O)O)CCN2C(=O)c1cc(F)cc(F)c1 (atropisomer, axis not shown) [Example 189, (S)-2-(tert-Butoxy)-2-((R)-1-(3,5-difluorobenzoyl)-6-methyl-4-(5-methylchroman-6-yl)indolin-5-yl)acetic acid] | 6
COc1ccc(C(=O)N2CCc3c2cc(C)c([C@H](OC(C)(C)C)C(=O)O)c3-c2ccc3c(c2C)CCCO3)cc1C (atropisomer, axis not shown) [Example 190, (S)-2-(tert-Butoxy)-2-((R)-1-(4-methoxy-3-methylbenzoyl)-6-methyl-4-(5-methylchroman-6-yl)indolin-5-yl)acetic acid] | 124
Cc1ccc(C(=O)N2CCc3c2cc(C)c([C@H](OC(C)(C)C)C(=O)O)c3-c2ccc3c(c2C)CCCO3)cn1 (atropisomer, axis not shown) [Example 191, (S)-2-(tert-Butoxy)-2-((R)-6-methyl-4-(5-methylchroman-6-yl)-1-(6-methylnicotinoyl)indolin-5-yl)acetic acid] | 868
COc1ccc(C(=O)N2CCc3c2cc(C)c([C@H](OC(C)(C)C)C(=O)O)c3-c2cc(OC)c3c(c2C)CCCO3)cc1C (atropisomer, axis not shown) [Example 192, (S)-2-(tert-Butoxy)-2-((R)-1-(4-methoxy-3-methylbenzoyl)-4-(8-methoxy-5-methylchroman-6-yl)-6-methylindolin-5-yl)acetic acid] | 5
COc1cc(-c2c3c(cc(C)c2[C@H](OC(C)(C)C)C(=O)O)N(C(=O)c2ccc(C)nc2)CC3)c(C)c2c1OCCC2 (atropisomer, axis not shown) [Example 193, (S)-2-(tert-Butoxy)-2-((R)-4-(8-methoxy-5-methylchroman-6-yl)-6-methyl-1-(6-methylnicotinoyl)indolin-5-yl)acetic acid] | 9
COc1ccc(C(=O)N2CCc3c2cc(C)c([C@H](OC(C)(C)C)C(=O)O)c3-c2cc(C)c3c(c2C)CCCO3)cc1C (atropisomer, axis not shown) [Example 194, (S)-2-(tert-Butoxy)-2-((R)-4-(5,8-dimethylchroman-6-yl)-1-(4-methoxy-3-methylbenzoyl)-6-methylindolin-5-yl)acetic acid] | 43
Cc1ccc(C(=O)N2CCc3c2cc(C)c([C@H](OC(C)(C)C)C(=O)O)c3-c2cc(C)c3c(c2C)CCCO3)cn1 (atropisomer, axis not shown) [Example 195, (S)-2-(tert-Butoxy)-2-((R)-4-(5,8-dimethylchroman-6-yl)-6-methyl-1-(6-methylnicotinoyl)indolin-5-yl)acetic acid] | 121
COc1ccc(C(=O)N2CCc3c2cc(C)c([C@H](OC(C)(C)C)C(=O)O)c3-c2cc(C(F)(F)F)c3c(c2C)CCCO3)cc1C (atropisomer, axis not shown) [Example 196, (S)-2-(tert-Butoxy)-2-((R)-1-(4-methoxy-3-methylbenzoyl)-6-methyl-4-(5-methyl-8-(trifluoromethyl)chroman-6-yl)indolin-5-yl)acetic acid] | 359
Cc1ccc(C(=O)N2CCc3c2cc(C)c([C@H](OC(C)(C)C)C(=O)O)c3-c2cc(C(F)(F)F)c3c(c2C)CCCO3)cn1 (atropisomer, axis not shown) [Example 197, (S)-2-(tert-Butoxy)-2-((R)-6-methyl-4-(5-methyl-8-(trifluoromethyl)chroman-6-yl)-1-(6-methylnicotinoyl)indolin-5-yl)acetic acid] | 712
